# According to US20160038518A1, “METHODS FOR TREATING PSORIASIS AND VASCULAR INFLAMMATION” (VASCULAR BIOGENICS LTD., priority 2012, published 2016):
# Where “and” joins values, the source holds several entries; their conditions need not be identical. Equal entries are not always repeated. Where two headings read alike, the source gives them in different places.
# How the values were obtained:
# [1] = system: inflammation associated with the breast implants; assay: 18-FDG PET/CT of a patient with breast implants; assay type: in vivo, human; conditions: one patient, 20 mg/day, 12 weeks, FIG. 6
# Description: A patient with breast implants was treated with VD-201 at 20 mg/day for 12 weeks. PET-CT scans were done at baseline and at 12 weeks, using positron emission computed tomography (PET/CT) imaging quantifying 18-fluorodeoxyglucose (18-FDG) uptake as a TBR as described in Example 1.
# [2] = system: LPS and Pam3CSK4 signaling; assay: LPS and Pam3CSK4 signaling in human monocytes; assay type: cell-based; conditions: FIG. 1B
# [3] = system: moderate to severe plaque psoriasis; assay: randomized, double-blind Phase II clinical study in plaque psoriasis (PGA, PtGA, PASI); assay type: in vivo, human; conditions: for average reduction of PASI score: 12 weeks
# Description: Patients were screened for eligibility and, up to 28 days later, at the baseline visit, randomized to one of three treatment groups (1:1:1): VB-201 20 mg/day: VB-201 80 mg/day: placebo/day. Patients consumed 2 capsules per day (VB-201 20 mg+placebo, VB-201 40 mg+40 mg, or 2× placebo). To ensure that the treatment assignments were concealed, all patients received 2 matching capsules of VB-201 or placebo.
# (§1) The efficacy analyses were performed on the data from a modified intention-to-treat (MITT) population (defined as all patients randomized who received at least one dose of medication and had at least one efficacy evaluation). The safety analyses were performed on all randomized patients who received at least one dose of the drug.
# A randomized, double-blind Phase II clinical study was performed in subjects with moderate to severe plaque psoriasis, in order to determine the efficacy of VB-201 in treating this condition. […] Patients underwent a wash-out period following any previous treatments. After screening and establishment of a baseline, eligible subjects were randomly assigned to receive 20 mg per day VB-201, 80 mg per day VB-201 or a daily placebo, for a period of 12 weeks.
# Doses were administered orally at breakfast time with food. The maximal dose of VB-201 (80 mg/day) was determined according to earlier tolerability results (see, e.g., Example 4 of WO2011/083465).
# Efficacy of each dosage level of VB-201 relative to placebo was determined according to the percentage of patients which achieved at least a 50% or 75% improvement over baseline PASI score at week 12.
# Statistical comparisons were performed using a two-sided comparison with a 5% level of significance. All analyses were performed using Statistical Analysis Software (SAS®) Version 9.2.
# Categorical analyses of Physician's Global Assessment and Patient's Psoriasis Global Assessment scores at Baseline, Week 8 and Week 12 were analyzed.
# The Physician's Global Assessment (PGA) score was based on a 5-point scale with possible outcomes 0=clear, 1=almost clear, 2=mild, 3=moderate and 4=severe.
# The Patient's Psoriasis Global Assessment (PtGA) score was based on a 6-point scale with possible outcomes 0=clear, 1=almost clear, 2=mild, 3=moderate, and 4 severe and 5=worst psoriasis has ever been.
# The analyses that follow use the categorical nature of the PGA and PtGA, i.e. the 5-point or 6-point ordered scale which was considered more relevant than a continuous approach.
# The proportion of patients with baseline, week 8 and week 12 PGA scores 0-3 vs. 4 (Clear or Almost Clear or Mild or Moderate vs. Severe) and PtGA scores of 0-2 vs. 3-5 (Clear or Almost Clear or Mild vs. Moderate or Severe or Worse).
# Pairwise comparisons between placebo and each active dose group was made using Fisher's exact tests at the 5% level of significance.
# [4] = Description: Additional criteria included change in affected body surface area from baseline to week 12, change in PGA score from baseline to week 12, any change relative to baseline PASI score, and change in Patient Psoriasis Global Assessment (PtGA) score from baseline to week 12. Blood samples were taken at weeks 4, 8 and 12, in order to assess VB-201 pharmacokinetics, as well as plasma cytokine levels. Safety of VB-201 administration was evaluated by physical examination, incidence of adverse effects, vital signs, clinical chemistry, hematology, urinalysis and electrocardiograms.
# [5] = system: patients with moderate to severe plaque psoriasis; assay: safety evaluation in the Phase II clinical study; assay type: in vivo, human
# Description: as §1
# human CD 14+ monocytes = conditions: VB-201 5 μg/ml prior to chemotaxis assay; MCP-1 (50 ng/ml), MIP-1a (50 ng/ml) or RANTES (100 ng/ml); FIG. 1A
smiles,measurement,setting,value
"CCCCCCCCCCCCCCCCOC[C@H](COP(=O)([O-])OCC[N+](C)(C)C)OCCCCC(=O)O [VB-201, 1-hexadecyl-2-(4′-carboxy)butyl-sn-glycero-3-phosphocholine]",inflammation surrounding the breast implants (18-FDG uptake),[1],reduced inflammation surrounding the breast implants
same,inhibition of LPS and Pam3CSK4 signaling,[2],inhibition of LPS and Pam3CSK4 signaling
same,PGA decrease from baseline to week 12 versus placebo,[3]; 20 mg,statistically superior to that with placebo
same,"PGA odds ratio, ordered logistic regression under the proportional odds model","[3]; 20 mg and 80 mg groups combined vs placebo, p=0.049, CI=1.00-3.65",1.91
same,Patient Global Assessment decrease from baseline to week 12 versus placebo,"[3]; 20 mg, p=0.12",trend for efficacy
same,"PGA 0-3 (No/Almost Clear/Mild/Mod), % of patients","[3]; 20 mg/day, Baseline",83.87%
same,"PGA 0-3 (No/Almost Clear/Mild/Mod), Freq.","[3]; 20 mg/day, Baseline",52
same,"PGA 4 (Severe), % of patients","[3]; 20 mg/day, Baseline",16.13%
same,"PGA 4 (Severe), Freq.","[3]; 20 mg/day, Baseline",10
same,"PtGA 0-2 (No/Almost Clear/Mild), % of patients","[3]; 20 mg/day, Baseline",11.29%
same,"PtGA 0-2 (No/Almost Clear/Mild), Freq.","[3]; 20 mg/day, Baseline",7
same,"PtGA 3-5 (Mod/Severs/Worse), % of patients","[3]; 20 mg/day, Baseline",88.71%
same,"PtGA 3-5 (Mod/Severs/Worse), Freq.","[3]; 20 mg/day, Baseline",55
same,"PGA 0-3 (No/Almost Clear/Mild/Mod), % of patients","[3]; 20 mg/day, Week 8",96.8%
same,"PGA 0-3 (No/Almost Clear/Mild/Mod), Freq.","[3]; 20 mg/day, Week 8",60
same,"PGA 4 (Severe), % of patients","[3]; 20 mg/day, Week 8",3.2% and 3.23%
same,"PGA 4 (Severe), Freq.","[3]; 20 mg/day, Week 8",2
same,"PtGA 0-2 (No/Almost Clear/Mild), % of patients","[3]; 20 mg/day, Week 8",32.26%
same,"PtGA 0-2 (No/Almost Clear/Mild), Freq.","[3]; 20 mg/day, Week 8",20
same,"PtGA 3-5 (Mod/Severs/Worse), % of patients","[3]; 20 mg/day, Week 8",67.74%
same,"PtGA 3-5 (Mod/Severs/Worse), Freq.","[3]; 20 mg/day, Week 8",42
same,"PGA 0-3 (No/Almost Clear/Mild/Mod), % of patients","[3]; 20 mg/day, Week 12/EOT",95.16%
same,"PGA 0-3 (No/Almost Clear/Mild/Mod), Freq.","[3]; 20 mg/day, Week 12/EOT",59
same,"PGA 4 (Severe), % of patients","[3]; 20 mg/day, Week 12/EOT",4.8% and 4.84%
same,"PGA 4 (Severe), Freq.","[3]; 20 mg/day, Week 12/EOT",3
same,"PtGA 0-2 (No/Almost Clear/Mild), % of patients","[3]; 20 mg/day, Week 12/EOT",30.65%
same,"PtGA 0-2 (No/Almost Clear/Mild), Freq.","[3]; 20 mg/day, Week 12/EOT",19
same,"PtGA 3-5 (Mod/Severs/Worse), % of patients","[3]; 20 mg/day, Week 12/EOT",69.35%
same,"PtGA 3-5 (Mod/Severs/Worse), Freq.","[3]; 20 mg/day, Week 12/EOT",43
same,PGA decrease from baseline to week 12 versus placebo,[3]; 80 mg,trend for efficacy
same,"Patient Global Assessment odds ratio, ordered logistic regression under the proportional odds model","[3]; 80 mg vs. placebo, p=0.047, CI=1.01-3.80",1.96
same,Patient Global Assessment decrease from baseline to week 12 versus placebo,"[3]; 80 mg, p=0.02",statistically superior to that with placebo
same,"PGA 0-3 (No/Almost Clear/Mild/Mod), % of patients","[3]; 80 mg/day, Baseline",79.31%
same,"PGA 0-3 (No/Almost Clear/Mild/Mod), Freq.","[3]; 80 mg/day, Baseline",46
same,"PGA 4 (Severe), % of patients","[3]; 80 mg/day, Baseline",20.69%
same,"PGA 4 (Severe), Freq.","[3]; 80 mg/day, Baseline",12
same,"PtGA 0-2 (No/Almost Clear/Mild), % of patients","[3]; 80 mg/day, Baseline",11.86%
same,"PtGA 0-2 (No/Almost Clear/Mild), Freq.","[3]; 80 mg/day, Baseline",7
same,"PtGA 3-5 (Mod/Severs/Worse), % of patients","[3]; 80 mg/day, Baseline",88.14%
same,"PtGA 3-5 (Mod/Severs/Worse), Freq.","[3]; 80 mg/day, Baseline",52
same,"PGA 0-3 (No/Almost Clear/Mild/Mod), % of patients","[3]; 80 mg/day, Week 8",91.53%
same,"PGA 0-3 (No/Almost Clear/Mild/Mod), Freq.","[3]; 80 mg/day, Week 8",54
same,"PGA 4 (Severe), % of patients","[3]; 80 mg/day, Week 8",8.5% and 8.47%
same,"PGA 4 (Severe), Freq.","[3]; 80 mg/day, Week 8",5
same,"PtGA 0-2 (No/Almost Clear/Mild), % of patients","[3]; 80 mg/day, Week 8",33.90%
same,"PtGA 0-2 (No/Almost Clear/Mild), Freq.","[3]; 80 mg/day, Week 8",20
same,"PtGA 3-5 (Mod/Severs/Worse), % of patients","[3]; 80 mg/day, Week 8",66.1%
same,"PtGA 3-5 (Mod/Severs/Worse), Freq.","[3]; 80 mg/day, Week 8",39
same,"PGA 0-3 (No/Almost Clear/Mild/Mod), % of patients","[3]; 80 mg/day, Week 12/EOT",93.22%
same,"PGA 0-3 (No/Almost Clear/Mild/Mod), Freq.","[3]; 80 mg/day, Week 12/EOT",55
same,"PGA 4 (Severe), % of patients","[3]; 80 mg/day, Week 12/EOT",6.8% and 6.78%
same,"PGA 4 (Severe), Freq.","[3]; 80 mg/day, Week 12/EOT",4
same,"PtGA 0-2 (No/Almost Clear/Mild), % of patients","[3]; 80 mg/day, Week 12/EOT",38.98%
same,"PtGA 0-2 (No/Almost Clear/Mild), Freq.","[3]; 80 mg/day, Week 12/EOT",23
same,"PtGA 3-5 (Mod/Severs/Worse), % of patients","[3]; 80 mg/day, Week 12/EOT",61.0% and 61.02%
same,"PtGA 3-5 (Mod/Severs/Worse), Freq.","[3]; 80 mg/day, Week 12/EOT",36
same,"correlation between VB-201 plasma levels and PASI, PGA and PtGA efficacy endpoints","[3]; PGA p=0.04, PtGA p=0.001, FIG. 10",statistically significant dose response
same,efficacy compared to placebo in subgroups (exploratory analyses),"[3]; baseline PASI 14.3-18.5, age ≦46 years, BSA 16%-24%, psoriasis up to 20 years, no previous immunosuppressants or biologicals, elevated baseline hs-CRP",greater trends for efficacy
same,time course of the efficacy endpoints,[3]; over 3 months of treatment,continued to improve overtime and had not reached a plateau at 3 months
same,average reduction of PASI score,[3]; patients in quartile 1 of trough level,about 18%
same,average reduction of PASI score,"[3]; patients in quartile 4 of trough level, p=0.009",about 45%
same,percent change from baseline in PASI at 12 weeks versus trough level,"[3]; sub-population with baseline PASI score of about 14.3 to about 18.5, FIG. 9",significantly dependent on the trough level of VB-201
same,PASI 50 response rates and reductions in BSA compared to placebo,[3]; week 12,Trends for favorable efficacy
same,mean VB-201 trough level,[4]; patients in quartile 1,about 0 ng/mL
same,mean VB-201 trough level,[4]; patients in quartile 4,"about 3,640 ng/mL"
same,severity of diarrhea cases,[5]; 80 mg/day,mild (Grade 1) and transient
same,diarrhea rate,[5]; 80 mg/day (placebo 6.8%),15.3%
same,safety and tolerability,"[5]; PET-CT sub-study, 20 or 80 mg/day, 12 weeks",safe and well tolerated
same,tolerability,[5]; doses of 20 mg/day and 80 mg/day,well tolerated
same,overall rate of Serious Adverse Events,"[5]; main study, 2 subjects",1.6%
same,deaths on therapy,"[5]; main study, 12 weeks",No deaths occurred on therapy
same,related Serious Adverse Events,"[5]; main study, 12 weeks",No related Serious Adverse Events were observed
same,overall rate of discontinuation due to Adverse Events,"[5]; on VB-201, 4 subjects",3.2%
same,human monocyte migration towards chemoattractants,human CD 14+ monocytes,decreases human monocyte migration
